Source: the supplement of paper PMC4862054

Key:
Assay in all cases: normalised response (% of control), CellTiter-Glo; higher = more viable cells (100 = DMSO, 0 = benzethonium chloride kill control)
Details in all cases: incubation time: 72 h
Hs578T = tested on: Hs578T
How it was run: (§1)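 CellTox Green fluorescence (485/520 nm) and, after 10 min at room temperature, CellTiter-Glo luminescence were read from breast cancer cell lines incubated 72 h in 384-well plates. Cells were seeded as 20 µl suspension onto compound at 5 concentrations in 10-fold steps over a 10,000-fold range chosen per compound. Each plate was normalised to 0.1 % DMSO (100) and a positive kill control (0). Values are normalised signals, one per concentration.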

CAL-120 = tested on: CAL-120
How it was run: as §1

HCC1599 = tested on: HCC1599
How it was run: as §1

BT-549 = tested on: BT-549
How it was run: as §1

CAL-51 = tested on: CAL-51
How it was run: as §1

HCC1937 = tested on: HCC1937
How it was run: as §1

HCC1143 = tested on: HCC1143
How it was run: as §1

MDA-MB-468 = tested on: MDA-MB-468
How it was run: as §1

MFM-223 = tested on: MFM-223
How it was run: as §1

SK-BR-3 = tested on: SK-BR-3
How it was run: as §1

DU-4475 = tested on: DU-4475
How it was run: as §1

MCF-10A = tested on: MCF-10A
How it was run: as §1

HDQ-P1 = tested on: HDQ-P1
How it was run: as §1

MDA-MB-436 = tested on: MDA-MB-436
How it was run: as §1

CAL-85-1 = tested on: CAL-85-1
How it was run: as §1

MDA-MB-453 = tested on: MDA-MB-453
How it was run: as §1

MDA-MB-231 = tested on: MDA-MB-231
How it was run: as §1

BT-474 = tested on: BT-474
How it was run: as §1

CAL-148 = tested on: CAL-148
How it was run: as §1

Structure (SMILES) | normalised response (Hs578T) [%] | normalised response (CAL-120) [%] | normalised response (HCC1599) [%] | normalised response (BT-549) [%] | normalised response (CAL-51) [%] | normalised response (HCC1937) [%] | normalised response (HCC1143) [%] | normalised response (MDA-MB-468) [%] | normalised response (MFM-223) [%] | normalised response (SK-BR-3) [%] | normalised response (DU-4475) [%] | normalised response (MCF-10A) [%] | normalised response (HDQ-P1) [%] | normalised response (MDA-MB-436) [%] | normalised response (CAL-85-1) [%] | normalised response (MDA-MB-453) [%] | normalised response (MDA-MB-231) [%] | normalised response (BT-474) [%] | normalised response (CAL-148) [%]
CN[C@@H]1C[C@H]2O[C@@](C)([C@@H]1OC)n1c3ccccc3c3c4c(c5c6ccccc6n2c5c31)C(=O)N[C@H]4O [UCN-01] (1000 nM) | 11.7 | 20.5 | 8.97 | 17.8 | 11.8 | 32 | 17.3 | 5.24 | 30.2 | 22.3 | 7.33 | 1.2 | 18.8 | 27.5 | 23.2 | 34 | 7.91 | 12.4 | 75.2
CC1(C)NC(=O)N(c2ccc([N+](=O)[O-])c(C(F)(F)F)c2)C1=O [Nilutamide] (1000 nM) | 113 | 102 | 110 | 91.2 | 82.4 | 103 | 101 | 119 | 107 | 110 | 105 | 111 | 97.7 | 106 | 98.5 | 102 | 102 | 99.8 | 109
Oc1nc(-c2ccc(C(F)(F)F)cc2)nc2c1CSCC2 [XAV-939] (1000 nM) | 92.3 | 92 | 104 | 91.8 | 89.3 | 91.1 | 88.8 | 82 | 96.1 | 84.4 | 92.8 | 88.8 | 101 | 96.7 | 105 | 91.4 | 76.8 | 79.8 | 89.8
CCC1(c2ccc(N)cc2)CCC(=O)NC1=O (stereo not given) [Aminoglutethimide] (1000 nM) | 101 | 105 | 115 | 94.7 | 80.4 | 96.8 | 97.6 | 105 | 101 | 95.6 | 101 | 101 | 97 | 102 | 103 | 100 | 105 | 100 | 96.2
O=P1(NCCCl)OCCCN1CCCl (stereo not given) [Ifosfamide] (1000 nM) | 97.8 | 91.4 | 96.1 | 96.1 | 105 | 97.7 | 94.7 | 90.9 | 92.5 | 92 | 90.6 | 95.6 | 104 | 91.3 | 96.8 | 92.5 | 88.3 | 93.3 | 89
CNCc1ccc(-c2[nH]c3cc(F)cc4c3c2CCNC4=O)cc1 [Rucaparib] (1000 nM) | 107 | 105 | 94.4 | 100 | 106 | 105 | 94.1 | 93.5 | 96.3 | 86.7 | 97.6 | 101 | 98.8 | 88.8 | 110 | 100 | 99 | 92.3 | 95.3
COc1cc2nccc(Oc3ccc(NC(=O)C4(C(=O)Nc5ccc(F)cc5)CC4)cc3)c2cc1OC [Cabozantinib] (100 nM) | 103 | 101 | 117 | 96.5 | 109 | 95.6 | 92.2 | 96.7 | 98.7 | 104 | 99.6 | 88.6 | 97.6 | 99.2 | 93.6 | 106 | 90.5 | 87.7 | 98.1
CO[C@H]1/C=C\C=C(/C)C(=O)NC2=CC(=O)C(NCCN(C)C)=C(C[C@@H](C)C[C@H](OC)[C@H](O)[C@@H](C)/C=C(\C)[C@@H]1OC(N)=O)C2=O [Alvespimycin] (100 nM) | 41.8 | 52 | 76.9 | 33.7 | 26.7 | 36.5 | 35.4 | 39.6 | 39.9 | 44.1 | 0.07 | 13.5 | 31.3 | 46.6 | 23 | 25.8 | 26.5 | 36.1 | 23.9
Cc1ccc(-n2nc(C(C)(C)C)cc2NC(=O)Nc2ccc(OCCN3CCOCC3)c3ccccc23)cc1 [Doramapimod] (1000 nM) | 97 | 101 | 108 | 99.6 | 111 | 95.1 | 95.2 | 87.5 | 87.6 | 80.8 | 96 | 89.1 | 89.1 | 105 | 121 | 85.8 | 83.7 | 86.1 | 80.3
C=C(c1ccc(C(=O)O)cc1)c1cc2c(cc1C)C(C)(C)CCC2(C)C [Bexarotene] (1000 nM) | 94.9 | 104 | 57.6 | 102 | 111 | 102 | 102 | 103 | 102 | 80 | 103 | 81.8 | 104 | 99.4 | 102 | 103 | 106 | 87.8 | 86.4
COc1cc([C@@H]2c3cc4c(cc3[C@@H](O[C@@H]3O[C@@H]5CO[C@@H](C)O[C@H]5[C@H](O)[C@H]3O)[C@H]3COC(=O)[C@H]23)OCO4)cc(OC)c1O [Etoposide] (1000 nM) | 91 | 93.3 | 63.5 | 76.7 | 65.7 | 94 | 86.2 | 87.3 | 114 | 67.7 | 56.8 | 99.8 | 97.6 | 67 | 101 | 153 | 94.7 | 93.2 | 69
N[C@@H](CSC(c1ccccc1)(c1ccccc1)c1ccccc1)C(=O)O [S-trityl-L-cysteine] (4000 nM) | 99.2 | 102 | 109 | 98.6 | 87.3 | 97.3 | 94 | 105 | 101 | 94.3 | 91.1 | 96.3 | 99.5 | 100 | 99.8 | 103 | 105 | 102 | 97.6
CCC1=C[C@@H]2CN(C1)Cc1c([nH]c3ccccc13)[C@@](C(=O)OC)(c1cc3c(cc1OC)N(C)[C@H]1[C@@](O)(C(=O)OC)[C@H](OC(C)=O)[C@]4(CC)C=CCN5CC[C@]31[C@@H]54)C2 [Vinorelbine] (1000 nM) | 35.5 | 66.9 | 26 | 41.8 | 26.7 | 73.8 | 56.9 | 30.3 | 39.3 | 16.9 | 69.9 | 63 | 76.2 | 24.7 | 39 | 56.1 | 43.5 | 55.7 | 43.2
Clc1ccc(Nc2nnc(Cc3ccncc3)c3ccccc23)cc1 [Vatalanib] (1000 nM) | 100 | 99.2 | 124 | 100 | 94.4 | 103 | 97 | 103 | 104 | 104 | 106 | 103 | 109 | 106 | 97.7 | 95.4 | 105 | 95.2 | 98.7
CN(C)/N=N/c1[nH]cnc1C(N)=O [Dacarbazine] (1000 nM) | 105 | 96 | 111 | 101 | 91.2 | 101 | 103 | 117 | 105 | 102 | 101 | 104 | 95.4 | 101 | 100 | 104 | 105 | 101 | 97.8
Cn1c(CCCC(=O)O)nc2cc(N(CCCl)CCCl)ccc21 [Bendamustine] (1000 nM) | 106 | 104 | 105 | 92.4 | 112 | 95.7 | 106 | 117 | 111 | 107 | 101 | 96.9 | 102 | 101 | 101 | 117 | 106 | 101 | 110
C#Cc1cccc(Nc2ncnc3cc(OCCOC)c(OCCOC)cc23)c1 [Erlotinib] (1000 nM) | 99.8 | 93.5 | 100 | 100 | 80.3 | 93.4 | 94.7 | 82.9 | 100 | 97.5 | 104 | 37.1 | 69.3 | 99.9 | 60.2 | 107 | 102 | 96.3 | 82.1
Cc1ccc(C(=O)Nc2ccc(CN3CCN(C)CC3)c(C(F)(F)F)c2)cc1C#Cc1cnc2cccnn12 [Ponatinib] (100 nM) | 96.5 | 86.3 | 117 | 107 | 112 | 97.2 | 97.6 | 120 | 54.5 | 107 | 99.3 | 103 | 92.1 | 97 | 105 | 110 | 91.4 | 93 | 99.6
O=C1CCC(N2C(=O)c3ccccc3C2=O)C(=O)N1 (stereo not given) [Thalidomide] (1000 nM) | 107 | 101 | 114 | 96.3 | 120 | 98 | 95.9 | 106 | 93.8 | 99.4 | 100 | 102 | 101 | 99.1 | 94.5 | 102 | 95.8 | 102 | 96
Cn1c(Nc2ccc(C(F)(F)F)cc2)nc2cc(Oc3ccnc(-c4ncc(C(F)(F)F)[nH]4)c3)ccc21 [RAF265] (100 nM) | 82.5 | 82.9 | 120 | 91.1 | 77.8 | 91.6 | 95.9 | 85.5 | 96.5 | 92 | 95.3 | 91.4 | 75 | 89.8 | 98.5 | 110 | 104 | 99.3 | 97.1
